Experimental data taken from ChEMBL document CHEMBL2074519, “Molecular evidence and functional expression of a novel drug efflux pump (ABCC2) in human corneal epithelium and rabbit cornea and its role in ocular drug efflux” (Int J Pharm, 2006).

Tests used:
[1] = target: T1, ATP-binding cassette sub-family C member 2 (Homo sapiens, UniProt Q92887); experiment: TP_TRANSPORTER: increase cell accumulation of erythromycin in hMRP2-expressing MDCK2 cells; assay type: functional, cell-based; settings: dog, mdck-ii
[2] = target: T1, ATP-binding cassette sub-family C member 2; experiment: TP_TRANSPORTER: increase cell accumulation of cyclosporine-A in hMRP2-expressing MDCK2 cells; assay type: functional, cell-based; settings: dog, mdck-ii

T1 sequence (Q92887 whole entry): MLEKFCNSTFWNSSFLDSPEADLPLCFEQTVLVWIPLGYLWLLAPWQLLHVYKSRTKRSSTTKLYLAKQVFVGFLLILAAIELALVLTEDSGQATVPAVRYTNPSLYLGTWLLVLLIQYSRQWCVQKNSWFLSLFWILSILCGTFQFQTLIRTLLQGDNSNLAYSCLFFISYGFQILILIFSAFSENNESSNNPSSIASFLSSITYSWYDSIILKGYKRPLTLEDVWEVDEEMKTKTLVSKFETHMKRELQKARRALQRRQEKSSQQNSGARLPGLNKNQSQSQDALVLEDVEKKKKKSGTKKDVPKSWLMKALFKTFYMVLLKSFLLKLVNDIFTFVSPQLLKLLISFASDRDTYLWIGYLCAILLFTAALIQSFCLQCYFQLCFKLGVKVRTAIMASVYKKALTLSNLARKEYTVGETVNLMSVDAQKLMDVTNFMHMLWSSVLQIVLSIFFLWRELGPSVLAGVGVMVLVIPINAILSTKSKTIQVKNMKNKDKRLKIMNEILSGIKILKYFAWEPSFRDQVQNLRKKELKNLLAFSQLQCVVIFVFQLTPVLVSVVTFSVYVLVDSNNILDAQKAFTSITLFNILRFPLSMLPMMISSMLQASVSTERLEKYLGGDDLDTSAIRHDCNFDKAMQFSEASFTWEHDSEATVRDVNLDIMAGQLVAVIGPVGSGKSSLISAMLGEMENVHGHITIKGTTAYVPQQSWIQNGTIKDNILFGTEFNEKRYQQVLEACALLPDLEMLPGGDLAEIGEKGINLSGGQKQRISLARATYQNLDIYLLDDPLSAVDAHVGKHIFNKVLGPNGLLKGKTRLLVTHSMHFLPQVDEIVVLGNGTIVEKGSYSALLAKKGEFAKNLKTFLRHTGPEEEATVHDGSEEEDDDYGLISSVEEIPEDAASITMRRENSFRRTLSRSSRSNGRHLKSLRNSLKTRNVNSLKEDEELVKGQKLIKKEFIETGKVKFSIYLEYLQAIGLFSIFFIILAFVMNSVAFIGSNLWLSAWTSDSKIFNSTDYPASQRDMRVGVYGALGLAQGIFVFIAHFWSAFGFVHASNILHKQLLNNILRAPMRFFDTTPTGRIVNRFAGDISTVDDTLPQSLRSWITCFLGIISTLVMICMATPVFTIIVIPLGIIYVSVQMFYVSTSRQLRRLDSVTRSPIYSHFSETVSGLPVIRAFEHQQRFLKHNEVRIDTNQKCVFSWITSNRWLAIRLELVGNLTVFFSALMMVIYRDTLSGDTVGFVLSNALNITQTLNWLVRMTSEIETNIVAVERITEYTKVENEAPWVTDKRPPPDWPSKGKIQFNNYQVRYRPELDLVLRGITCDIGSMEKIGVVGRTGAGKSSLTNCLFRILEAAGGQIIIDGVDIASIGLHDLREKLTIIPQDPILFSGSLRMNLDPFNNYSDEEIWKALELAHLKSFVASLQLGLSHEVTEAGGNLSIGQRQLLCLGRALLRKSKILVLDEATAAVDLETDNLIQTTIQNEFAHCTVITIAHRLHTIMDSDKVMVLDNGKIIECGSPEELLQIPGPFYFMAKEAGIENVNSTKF

## CN(C)C(=O)CCSC(SCCC(=O)O)c1cccc(/C=C/c2ccc3ccc(Cl)cc3n2)c1 (configuration not stated) [MK-571]
[1]
  Activity: 195%
[2]
  Activity: 156%
